Entries after “also recorded” stand apart in the source; their conditions may differ.
Key:
Format in all cases: physicochemical
[1] = Tablet hardness, Schleuniger hardness tablet tester
[2] = Slug (compact) hardness, Schleuniger hardness tablet tester
From the text: A compaction simulator was used to compress the blends. The compaction simulator was designed as a single station tablet press in which the compression dwell time can be adjusted to simulate different types of tablet presses. All the formulations were slugged on the compaction simulator configured as the Kilian RX-67 press with a dwell time of 0.3145 seconds using […] round flat face tooling. The slugs were then comminuted using a Fitz mill with a 0.125″ screen with knives forward and run at slow speed. […] The slugs were tested for hardness (kP scale), using a Schleuniger hardness tablet tester (Dr. Schleuniger Pharmatron AG, Solothurn, Switzerland).

[3] = Tablet disintegration time, Automatic Disintegration Tester; conditions: Table 2A; Long blend; Oval tooling; distilled water at 37° C.
Protocol: The disintegration time was determined in distilled water at 37° C. using an Automatic Disintegration Tester (Model ZT72, Erweka USA Inc, Milford, Conn.) for the long blend tablets. Even with extensive blending times with magnesium stearate, reasonably short disintegration times of 15 and 20 seconds were obtained.

[4] = Density and Carr's Compressibility Index (flowability) of dry blends and dry granulations
From the text: Carr's Compressibility Index was used to evaluate the flowability of the four dry granulations. Carr's Compressibility Index is a simple test to evaluate flowability by comparing both the initial and final (tapped) bulk volumes and the rate of packing down. A useful empirical guide to flow is given by Carr's compressibility index: Compressibility Index(%)=[(tapped density−initial density)/tapped density]×100 […] The procedure is described in Int. J. Pharm. Tech. & Prod. Mfr., 6(3) 10-16, 1985.

[5] = Tablet friability, Vanderkamp Friabulator (100 rotations/4 minutes)
[6] = as above; remark: listed apart in the source
Protocol: Friability is a standard test known to one skilled in the art. Friability is measured under standardized conditions by weighing out a certain number of tablets (generally 20 tablets or less), placing them in a rotating Plexiglas drum in which they are lifted during replicate revolutions by a radial lever, and then dropped approximately 8 inches. After replicate revolutions (typically 100 revolutions at 25 rpm), the tablets are reweighed and the percentage of formulation abraded or chipped is calculated. The friability of the tablets, of the present invention, is preferably in the range of about 0% to 3%, and values about 1%, or less, are considered acceptable for most drug and food tablet contexts. Friability which approaches 0% is particularly preferred.
(§1) All four formulations were compressed on the compaction simulator using either 0.344″×0.688″ oval tooling, or ½″ standard round concave (SRC) tooling. The tablets were tested for hardness (kP scale), using a Schleuniger hardness tablet tester (Dr. Schleuniger Pharmatron AG, Solothurn, Switzerland), and for friability (100 rotations/4 minutes) using a Vanderkamp Friabulator Tablet Tester (Vankel, Cary, N.C., US).

[7] = Indices of tableting performance (Hiestand) of bulk azithromycin; conditions: forms N, M, G, A milled, F and J unmilled
Protocol: Indices of tableting performance, for several azithromycin forms, were assessed to identify any mechanical deficiencies or attributes that may affect tablet formulation for these azithromycin forms. This assessment was performed in accordance with the procedures described in “Indices of Tableting, Performance” […] and D. P. Smith, Powder Technology 38 [1984] pp. 145-159. Specifically, the Brittle Fracture Index, BFI, was calculated from the ratio of a material's regular tensile strength to its compromised tensile strength. Strain Index, SI, was determined from the dynamic indentation hardness test. Worst Case Bonding Index was determined by assessing the extent of particle bonding remaining after decompression assuming a very short compression dwell time and a plastic mechanism of particle separation during decompression. Tableting Indices were determined for bulk azithromycin lots of six different crystalline forms, specifically forms N, M, G, A, F and J. Forms N, M and G were milled with a Fitzmill (Model JT, The Fitzpatrick Co., Elmhurst, Ill.) using a 0.027'' screen and knives at high speed in an attempt to match the smaller particle size of milled Form A. Unmilled forms F and J were evaluated “as is” due to their relatively small particle sizes.

[8] = Tablet hardness, Schleuniger hardness tablet tester; remark: listed apart in the source
Protocol: as §1

[9] = Table 4D, high drug loading, diluent DCP, dihyd., modified capsule shape
[10] = 35.2 wt % azithromycin, dicalcium phosphate anhydrous diluent, Long blend method
[11] = Table 3A, low drug loading: 35.2 wt % azithromycin, 54.8 wt % dicalcium phosphate anhydrous, long blend
[12] = Table 4B, high drug loading (58.2 wt % azithromycin), diluent DCP, dihyd.
[13] = 35.2 wt % azithromycin, dicalcium phosphate anhydrous diluent, Long blend method, slugged
[14] = Table 3C, low drug loading (35.2 wt % azithromycin), DCP anhydrous, oval tablets, target weight 750 mg
[15] = Table 3D, high drug loading (58.2 wt % azithromycin), DCP anhydrous, modified capsule shape tablets, target weight 450 mg
[16] = Table 6B, Drug Loading High, Modified Capsule 0.262″ × 0.531″
[17] = Table 6B, Drug Loading Low, Modified Capsule 0.262″ × 0.531″
[18] = Table 6B, Drug Loading Low, ½″ SRC
[19] = Table 3B, high drug loading: 58.2 wt % azithromycin, 31.8 wt % dicalcium phosphate anhydrous, long blend
[20] = Table 6A, Drug Loading High (58.2 wt % azithromycin), DCP anhydrous
[21] = Table 6A, Drug Loading Low (35.2 wt % azithromycin), DCP anhydrous
[22] = Table 6B, Drug Loading High, Oval 0.344″ × 0.688″
[23] = Table 6B, Drug Loading Low, Oval 0.344″ × 0.688″

SMILES: CCC1OC(=O)C(C)C(O[C@H]2C[C@@](C)(OC)[C@@H](O)C(C)O2)C(C)[C@@H](OC2OC(C)CC(N(C)C)[C@H]2O)[C@@](C)(O)C[C@@H](C)CN(C)[C@H](C)[C@@H](O)[C@]1(C)O (stereo partly drawn) [Form F, azithromycin monohydrate hemi-ethanol solvate]
- Avg Tablet Hardness [1, 9]: 7.0 kP
- Avg Slug Hardness [2, 10]: 22.4 kP
- Avg Slug Hardness [2, 11]: 22 kP
- Avg Slug Hardness [2, 12]: 9 kP
- Mean disintegration Time [3]: 20 s
- Dry Blend Carr's Index [4, 10]: 43%
- Dry Blend density As Is [4, 10]: 0.50 g/cc
- Dry Blend density Tapped [4, 10]: 0.88 g/cc
- Granulation Carr's Index [4, 13]: 22%
- Granulation Density As Is [4, 13]: 0.84 g/cc
- Granulation Density Tapped [4, 13]: 1.07 g/cc
- Granulation Carr's Index [4, 11]: 22%
- Granulation Density As Is [4, 11]: 0.84 g/cc
- Granulation Density Tapped [4, 11]: 1.08 g/cc
- Dry Granulation Carr's Index [4, 12]: 27%
- Dry Granulation Density As Is [4, 12]: 0.63 g/cc
- Dry Granulation Density Tapped [4, 12]: 0.86 g/cc
- Friability [5, 9]: 0.31%
- Friability ([6]; Table 2A, 35.2 wt % azithromycin, DCP anhydrous, Long blend, Oval tooling): 0.48%
- Friability [6, 14]: 0.48%
- Brittle Fracture Index (BFI) [7]: 0.37
- Strain Index (SI) [7]: 0.0041
- Tensile Strength [7]: 1.62 Mpa
- Worst Case Bonding Index (BIw) × 10^2 [7]: 0.9
- Avg Tablet Hardness ([8]; Table 2A, 35.2 wt % azithromycin, DCP anhydrous, Long blend, Oval tooling, compression force 13.5 kN (A), 19 kN (F)): 10.3 kP
- Avg Hardness [8, 14]: 10.3 kP

SMILES: CCC1OC(=O)C(C)C(O[C@H]2C[C@@](C)(OC)[C@@H](O)C(C)O2)C(C)[C@@H](OC2OC(C)CC(N(C)C)[C@H]2O)[C@@](C)(O)C[C@@H](C)CN(C)[C@H](C)[C@@H](O)[C@]1(C)O (stereo partly drawn) [Form J, azithromycin monohydrate hemi-n-propanol solvate]
- Avg Hardness [1, 15]: 6.5 kP
- Avg Hardness [1, 16]: 6.5 kP
- Avg Hardness [1, 17]: 6.9 kP
- Avg Hardness [1, 18]: 5.4 kP
- Avg Slug Hardness [2, 11]: 14 kP
- Avg Slug Hardness [2, 19]: 11 kP
- Avg Slug Hardness [2, 20]: 11 kP
- Avg Slug Hardness [2, 21]: 14 kP
- Granulation Carr's Index [4, 11]: 22%
- Granulation Density As Is [4, 11]: 0.87 g/cc
- Granulation Density Tapped [4, 11]: 1.12 g/cc
- Granulation Carr's Index [4, 19]: 28%
- Granulation Density As Is [4, 19]: 0.67 g/cc
- Granulation Density Tapped [4, 19]: 0.93 g/cc
- Dry Granulation Carr's Index [4, 20]: 28%
- Dry Granulation Density As Is [4, 20]: 0.67 g/cc
- Dry Granulation Density Tapped [4, 20]: 0.93 g/cc
- Dry Granulation Carr's Index [4, 21]: 22%
- Dry Granulation Density As Is [4, 21]: 0.87 g/cc
- Dry Granulation Density Tapped [4, 21]: 1.12 g/cc
- Friability [5, 15]: 0.38%
- Friability [6, 14]: broke during friability testing; also recorded: Broken
- Friability [6, 16]: 0.38%
- Friability [6, 22]: 0.71%
- Friability [6, 17]: 0.52%
- Friability [6, 23]: Broken Tablets
- Friability [6, 18]: 1.46%
- Brittle Fracture Index (BFI) [7]: 0.11
- Strain Index (SI) [7]: 0.0043
- Tensile Strength [7]: 0.69 Mpa
- Worst Case Bonding Index (BIw) × 10^2 [7]: 0.7
- Avg Hardness [8, 14]: 9.1 kP
- Avg Hardness [8, 22]: 10.2 kP
- Avg Hardness [8, 23]: 9.1 kP

Source: patent US20030228357A1, “Dry granulated formulations of azithromycin” (Pfizer Inc., priority 2002, published 2003)
